# Literature values as cited in patent US6858221B2, “Intravascular delivery of mycophenolic acid” (Avantec Vascular Corporation, priority 2000, dated 2005).
# Tested on: Human SMC
# Settings: dose range 0.1 nM-1 μM, Mohacsi et al. 1997
compound,measurement,value
"CO[C@H]1C[C@@H]2CC[C@@H](C)[C@@](O)(O2)C(=O)C(=O)N2CCCC[C@H]2C(=O)O[C@H]([C@H](C)C[C@@H]2CC[C@@H](O)[C@H](OC)C2)CC(=O)[C@H](C)/C=C(\C)[C@@H](O)[C@@H](OC)C(=O)[C@H](C)C[C@H](C)/C=C/C=C/C=C/1C [Rapamycin, rapamycin]",IC50,1 nM
